Data reported in the CheMixHub ionic liquid set.
“And” between values parts separate entries of the source, which are not always exact repeats. Equal values may be shown once.

Assay: xn = mol fraction of the nth substance listed

CC[n+]1ccn(C)c1.O=S(=O)([O-])C(F)(F)F + OCCO
100 kPa
Settings | electrical conductivity | viscosity [mPa·s]
293.15 K, x1 = 0.001 | – | 20.7
293.15 K, x1 = 0.007 | – | 20.4
293.15 K, x2 = 0.974 | – | 19.6
298.15 K, x1 = 0.001 | 0.0058 S/m and 0.0109 S/m | 16.9
298.15 K, x2 = 0.798 | – | 16.62
303.15 K, x1 = 0.013 | – | 13.4
303.15 K, x2 = 0.0943 | – | 30.94
303.15 K, x2 = 0.2 | – | 23.4
308.15 K, x2 = 0.6019 | – | 13.71
308.15 K, x2 = 0.8964 | – | 11.78
313.15 K, x1 = 0.001 | 0.01 S/m and 0.0188 S/m | 9.53
313.15 K, x2 = 0.408 | – | 13.87
313.15 K, x2 = 0.497 | – | 10.6
313.15 K, x2 = 0.808 | 1.51 S/m | 8
318.15 K, x2 = 0.0943 | – | 19.42
323.15 K, x2 = 0.0943 | – | 16.91
323.15 K, x2 = 0.2021 | – | 13.96
323.15 K, x2 = 0.408 | – | 11.12

[Br-].[PH3+]CCCCCCCCCCCCCC(c1ccccc1)(c1ccccc1)c1ccccc1 + O
300 K, 101 kPa
Settings | electrical conductivity [S/m]
x2 = 0.503 | 0.00198
x2 = 0.603 | 0.00058
x2 = 0.802 | 0.00038

CC[NH+](C)CC.CS(=O)(=O)[O-] + O
Settings | viscosity [mPa·s]
293.1 K, 101 kPa, x2 = 0.707 | 21
298.15 K, 100 kPa, x1 = 0.0967 | 4.51
298.15 K, 100 kPa, x1 = 0.4263 | 31.1
298.15 K, 100 kPa, x1 = 0.6771 | 69.7
303.15 K, 100 kPa, x1 = 0.0967 | 3.94
303.15 K, 100 kPa, x1 = 0.3246 | 16.6
303.15 K, 100 kPa, x1 = 0.6771 | 55.2
308.15 K, 100 kPa, x1 = 0.0155 | 1.04
308.15 K, 100 kPa, x1 = 0.5018 | 27.9
308.15 K, 100 kPa, x1 = 0.5783 | 34.2
308.15 K, 100 kPa, x1 = 0.7782 | 55.3
313.1 K, 101 kPa, x2 = 0.372 | 27.27
313.15 K, 100 kPa, x1 = 0.0571 | 1.79
313.15 K, 100 kPa, x1 = 0.3246 | 11.8
313.15 K, 100 kPa, x1 = 0.4263 | 18
318.15 K, 100 kPa, x1 = 0.1582 | 4.46
328.15 K, 100 kPa, x1 = 0.1582 | 3.46
328.15 K, 100 kPa, x1 = 0.206 | 4.6
328.15 K, 100 kPa, x1 = 0.5018 | 14.1
328.15 K, 100 kPa, x1 = 0.7782 | 25.4
333.1 K, 101 kPa, x2 = 0.372 | 13.95
333.1 K, 101 kPa, x2 = 0.507 | 9.98
333.15 K, 100 kPa, x1 = 0.0967 | 1.97
333.15 K, 100 kPa, x1 = 0.3246 | 6.65
333.15 K, 100 kPa, x1 = 0.5018 | 12.2
338.15 K, 100 kPa, x1 = 0.0571 | 1.11
338.15 K, 100 kPa, x1 = 0.3246 | 5.84
338.15 K, 100 kPa, x1 = 0.4263 | 8.21
338.15 K, 100 kPa, x1 = 0.5018 | 10.3
338.15 K, 100 kPa, x1 = 0.5783 | 12.2
338.15 K, 100 kPa, x1 = 0.6771 | 15.3
353.1 K, 101 kPa, x2 = 0.449 | 6.83
353.1 K, 101 kPa, x2 = 0.624 | 4.58

CC[n+]1ccn(C)c1.C[C@H](N)C(=O)[O-] + CC[n+]1ccn(C)c1.N#C[C-](C#N)C#N
101 kPa, x2 = 0
Settings | viscosity [mPa·s]
308.15 K | 137.5
313.15 K | 103.5

CCCC[n+]1ccn(C)c1.N[C@@H](CC(=O)O)C(=O)[O-] + CO
101 kPa
Settings | electrical conductivity [S/m]
298.15 K, x2 = 0.2999 | 0.101
298.15 K, x2 = 0.5015 | 0.161
298.15 K, x2 = 0.7957 | 0.64
298.15 K, x2 = 0.8988 | 1.13
303.15 K, x2 = 0.1999 | 0.108
303.15 K, x2 = 0.5949 | 0.241
303.15 K, x2 = 0.6969 | 0.377
308.15 K, x2 = 0.398 | 0.218
308.15 K, x2 = 0.6969 | 0.496
308.15 K, x2 = 0.9214 | 1.39
308.15 K, x2 = 0.975 | 1.36
318.15 K, x2 = 0.1999 | 0.212
318.15 K, x2 = 0.5015 | 0.378
318.15 K, x2 = 0.7957 | 0.98
318.15 K, x2 = 0.8988 | 1.42

CCCC[P+](CCCC)(CCCC)CCCC.[Br-] + OCCO + O
viscosity [mPa·s], 101.3 kPa
Settings | x1 = 0.0383, x2 = 0.0767 | x1 = 0.06893, x2 = 0.1381 | x1 = 0.09557, x2 = 0.1914 | x1 = 0.1302, x2 = 0.2608 | x1 = 0.1675, x2 = 0.3355 | x1 = 0.1968, x2 = 0.3942 | x1 = 0.2368, x2 = 0.4742 | x1 = 0.2634, x2 = 0.5276 | x1 = 0.3054, x2 = 0.6116 | x1 = 0.333, x2 = 0.667
293.15 K | 4.67 | 11.5 | 20.5 | 35.1 | 50.8 | 62 | 74.1 | 82.3 | 105 | 122
298.15 K | 3.8 | 9.08 | 16.1 | 27.2 | 38.8 | 48.1 | 57 | 64.1 | 78.1 | 93.4
303.15 K | 3.15 | 7.34 | 13 | 21.7 | 31 | 38.2 | 44.5 | 49.4 | 63.7 | 72.4
308.15 K | 2.74 | 6.11 | 10.6 | 17.7 | 24.9 | 30.1 | 35.3 | 39.5 | 50.2 | 56.9
313.15 K | 2.35 | 5.21 | 8.88 | 14.4 | 20.5 | 24.5 | 28.3 | 32.2 | 39.9 | 45.3
318.15 K | 2.08 | 4.43 | 7.33 | 11.9 | 16.8 | 20.1 | 23.1 | 26.4 | 32.4 | 36.6
323.15 K | 1.84 | 3.8 | 6.34 | 10.1 | 13.9 | 16.8 | 19 | 21.9 | 26.6 | 29.9

CC[n+]1ccn(C)c1.O=S(=O)([O-])C(F)(F)F + F[B-](F)(F)F.[Li+]
101 kPa, x1 = 1
Settings | electrical conductivity [S/m]
288.15 K | 0.605
298.15 K | 0.859
333.15 K | 2.24

CC[n+]1ccn(C)c1.O=S(=O)([O-])C(F)(F)F + CCC(C)O
101 kPa
Settings | viscosity [mPa·s]
298.15 K, x1 = 0.7986 | 30.77
298.15 K, x1 = 1 | 45.67
303.15 K, x1 = 0.3938 | 6.96
303.15 K, x1 = 0.4988 | 9.31
303.15 K, x1 = 0.5952 | 13.31
303.15 K, x1 = 0.7986 | 26.05
308.15 K, x1 = 0.3938 | 6.16
308.15 K, x1 = 0.903 | 28.15
313.15 K, x1 = 0.1945 | 3.63
313.15 K, x1 = 0.4988 | 7.33
313.15 K, x1 = 0.5952 | 10.28
313.15 K, x1 = 0.6907 | 14.61
313.15 K, x1 = 1 | 27.68
318.15 K, x1 = 0.4988 | 6.57
318.15 K, x1 = 0.903 | 20.96
323.15 K, x1 = 0.6907 | 11.38
323.15 K, x1 = 0.903 | 18.3

CC[S+](CC)CCOCCOCC[S+](CC)CC.N#C[N-]C#N.N#C[N-]C#N + CC[n+]1ccn(C)c1.N#C[N-]C#N + O=S(=O)([N-]S(=O)(=O)C(F)(F)F)C(F)(F)F.[Li+]
100 kPa, x1 = 0.2666, x2 = 0.6449
Settings | electrical conductivity [S/m]
298 K | 0.501
303 K | 0.604
313 K | 0.841
323 K | 1.13
333 K | 1.44
343 K | 1.72

COCC[n+]1ccn(C)c1.C[C@@H](O)[C@H](N)C(=O)[O-] + O
100 kPa
Settings | viscosity [mPa·s]
303.15 K, x1 = 0.5348 | 557
303.15 K, x1 = 0.6571 | 581
308.15 K, x1 = 0.3313 | 297
318.15 K, x1 = 0.5348 | 163.8
323.15 K, x1 = 0.4476 | 114.9
323.15 K, x1 = 0.5348 | 120.9
323.15 K, x1 = 0.6571 | 126.6

CC[n+]1ccn(C)c1.O=S(=O)([O-])C(F)(F)F + O=S(=O)([O-])C(F)(F)F.[Li+]
101 kPa, x1 = 1
Settings | electrical conductivity [S/m]
288.15 K | 0.605
298.15 K | 0.859
333.15 K | 2.24

CCCCCCCC[n+]1ccc2ccccc2c1.O=S(=O)([N-]S(=O)(=O)C(F)(F)F)C(F)(F)F + c1ccsc1
101 kPa
Settings | viscosity [mPa·s]
298.15 K, x2 = 0.542 | 42.73
298.15 K, x2 = 0.821 | 7.64
308.15 K, x2 = 0.0964 | 158.7
308.15 K, x2 = 0.542 | 27.8
308.15 K, x2 = 0.6385 | 16.12
308.15 K, x2 = 0.821 | 6.02
308.15 K, x2 = 0.9065 | 2.78
318.15 K, x2 = 0 | 108.7
318.15 K, x2 = 0.0964 | 92.2
318.15 K, x2 = 0.2739 | 54.7
318.15 K, x2 = 0.9065 | 2.36
338.15 K, x2 = 0.3572 | 20.4
348.15 K, x2 = 0.4456 | 11.37

CCCCCCCC[n+]1cccc(C)c1.F[B-](F)(F)F + O
298.15 K, 101 kPa
Settings | electrical conductivity [S/m]
x1 = 4.685e-05 | 0.024
x1 = 0.0001279 | 0.063
x1 = 0.000272 | 0.127
x1 = 0.0003045 | 0.142
x1 = 0.0004197 | 0.19
x1 = 0.0005619 | 0.248
x1 = 0.0007023 | 0.308
x1 = 0.0007922 | 0.33
x1 = 0.0008948 | 0.377
x1 = 0.0009955 | 0.402
x1 = 0.00103 | 0.408
x1 = 0.001107 | 0.419
x1 = 0.001265 | 0.42
x1 = 0.00128 | 0.42
x1 = 0.001371 | 0.421
x1 = 0.001459 | 0.421
x1 = 0.001608 | 0.422
x1 = 0.00177 | 0.422
x1 = 0.001919 | 0.422
x1 = 0.002066 | 0.423
x1 = 0.002642 | 0.425
